Experimental data from patent publication US20240018147A1, “SALT OF COMPOUND FOR DEGRADING BTK, CRYSTAL FORM THEREOF, AND USE THEREOF IN MEDICINE” (HAISCO PHARMACEUTICALS PTE. LTD., priority 2020, published 2024).

What was measured:
[1] = target: BTK (Homo sapiens (Human), UniProt Q06187); test: Detection of BTK degradation in Mino cells; type: cell-based
Experimental: The Mino human mantle cell lymphoma cell line was purchased from ATCC and cultured under conditions of RPMI-1640+15% FBS+1% double antibody in a 37° C., 5% CO2 incubator. Cells were plated in a 6-well plate, with 5×10^5 cells/well. After plating, compounds at different concentrations were added and cultured in a 37° C., 5% CO2 incubator for 48 h. After culturing, the cells were collected. The cells were lysed on ice for 15 minutes by adding RIPA lysis buffer (Beyotime, Cat. P0013B) and centrifuged at 12000 rpm at 4° C. for 10 minutes. The protein sample of the supernatant was collected, subjected to protein quantification by using a BCA kit (Beyotime, Cat. P0009) and then diluted to 0.25 mg/mL. The expressions of BTK (CST, Cat. 85475) and the internal reference β-actin (CST, Cat. 37005) were detected using a fully automated western blot quantitative analyzer (Proteinsimple) with a kit (Protein simple, Cat. SM-W004). The expression level of BTK relative to the internal reference was calculated by using Compass software, and the DC50 value was calculated by using Origen9.2 software according to formula (1). Specifically, the BTKadministration denoted the expression level of BTK in administration groups at different doses, and the BTKvehicle denoted the expression level of BTK in the vehicle control group.
BTK %=BTKadministration/BTKvehicle×100 formula (1)

[2] = target: BTK protein (Mus musculus (Mouse), UniProt P35991); test: Detection of BTK protein degradation in spleen of mice; type: in vivo; conditions: female ICR mice, intragastric, 3 consecutive days; conclusion in words
Chain of BTK protein (P35991 whole entry): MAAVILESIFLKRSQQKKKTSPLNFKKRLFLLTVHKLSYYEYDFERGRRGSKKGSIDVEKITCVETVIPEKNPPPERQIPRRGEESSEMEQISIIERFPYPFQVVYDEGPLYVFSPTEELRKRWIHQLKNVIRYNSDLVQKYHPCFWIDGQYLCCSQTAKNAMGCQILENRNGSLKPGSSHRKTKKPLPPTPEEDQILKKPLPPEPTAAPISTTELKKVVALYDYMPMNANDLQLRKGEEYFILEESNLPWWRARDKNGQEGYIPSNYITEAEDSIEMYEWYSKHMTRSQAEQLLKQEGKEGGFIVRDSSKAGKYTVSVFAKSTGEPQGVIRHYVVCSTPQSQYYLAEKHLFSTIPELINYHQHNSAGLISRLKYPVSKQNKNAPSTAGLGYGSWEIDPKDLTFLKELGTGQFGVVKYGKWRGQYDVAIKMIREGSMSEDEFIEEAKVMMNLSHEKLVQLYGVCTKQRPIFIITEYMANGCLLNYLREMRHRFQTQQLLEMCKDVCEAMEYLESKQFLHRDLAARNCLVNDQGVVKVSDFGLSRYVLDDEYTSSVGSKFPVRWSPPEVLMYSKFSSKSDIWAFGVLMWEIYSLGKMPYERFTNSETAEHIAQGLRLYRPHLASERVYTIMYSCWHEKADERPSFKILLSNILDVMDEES
Experimental: Female ICR mice, 6-8 weeks old, were purchased from Beijing Vital River Laboratory Animal Technology Co., Ltd., and the experiment was started after 3 days of adaptation. After 3 consecutive days of intragastric administration of compounds at different doses, the spleens of mice were taken. The spleen cells were collected, lysed on ice for 15 min by adding RIPA lysis buffer (Beyotime, Cat. P0013B), and then centrifuged at 12000 rpm at 4° C. for 10 min. The protein sample of the supernatant was collected, subjected to protein quantification by using a BCA kit (Beyotime, Cat. P0009) and then diluted to 0.25 mg/mL. The expressions of BTK (CST, Cat. 8547S) and the internal reference R-actin (CST, Cat. 3700S) were detected by using a fully automated western blot quantitative analyzer (Proteinsimple). The expression level of BTK relative to the internal reference was calculated by using Compass software, and the DD50 value was calculated by using Origen9.2 software according to formula (2). Specifically, the BTKadministration denoted the expression level of BTK in administration groups at different doses, and the BTKvehicle denoted the expression level of BTK in the vehicle control group.
BTK %=BTKadministration/BTKvehicle×100% formula (2)

Chain of BTK (Q06187 whole entry): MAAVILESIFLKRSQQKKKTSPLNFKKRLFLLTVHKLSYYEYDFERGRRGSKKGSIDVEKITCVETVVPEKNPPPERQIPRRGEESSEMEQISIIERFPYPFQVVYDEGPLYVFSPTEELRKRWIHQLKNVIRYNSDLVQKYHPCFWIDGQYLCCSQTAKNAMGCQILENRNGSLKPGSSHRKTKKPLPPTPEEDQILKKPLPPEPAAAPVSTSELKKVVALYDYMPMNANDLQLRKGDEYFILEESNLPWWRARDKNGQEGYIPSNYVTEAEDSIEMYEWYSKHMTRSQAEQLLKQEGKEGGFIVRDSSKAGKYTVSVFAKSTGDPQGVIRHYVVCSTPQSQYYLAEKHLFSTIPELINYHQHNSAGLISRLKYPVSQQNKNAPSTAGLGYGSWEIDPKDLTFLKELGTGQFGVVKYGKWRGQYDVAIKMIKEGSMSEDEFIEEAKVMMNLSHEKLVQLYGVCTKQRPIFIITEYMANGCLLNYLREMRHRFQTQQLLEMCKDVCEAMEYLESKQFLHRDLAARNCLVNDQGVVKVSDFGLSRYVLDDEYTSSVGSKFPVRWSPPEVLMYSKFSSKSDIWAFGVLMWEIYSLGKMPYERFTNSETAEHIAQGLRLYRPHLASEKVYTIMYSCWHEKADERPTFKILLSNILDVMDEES

DC50 ([1]; Mino cells, 48 h, western blot, BTK relative to β-actin): 22.9 nM | degradation effect on BTK in Mino cells ([1]; conclusion in words): significant degradation effect | degradation effect on BTK proteins in spleens of mice [2]: significant degradation effect
Structure (SMILES): Nc1ncnc2c1c(-c1ccc(Oc3ccccc3)cc1)nn2C1CCN(C2CCN(C3CN(c4ccc5c(c4)C(=O)N(C4CCC(=O)NC4=O)C5=O)C3)CC2)CC1 (stereo not drawn) [Compound 2, 5-(3-(4-(4-amino-3-(4-phenoxyphenyl)-1H-pyrazolo[3,4-d]pyrimidin-1-yl)-[1,4′-bipiperidin]-1′-yl)azetidin-1-yl)-2-(2,6-dioxopiperidin-3-yl)isoindoline-1,3-dione]
